This is an account of results in patent publication US10399940B2, “Substituted pyrrolidines and methods of use” (AbbVie S.à.r.l., priority 2016, dated 2019).

The assay addresses T1, F508delCFTR (Homo sapiens, UniProt P13569, DEL508-508).
T1 construct: expressed in transfected cells; host or cells: CFBE41o- (human lung derived epithelial cell line), doxycycline-inducible expression
The experiment in a line: Cell Surface Expression-Horse Radish Peroxidase (CSE-HRP) assay. The format is cell-based. The conditions noted are these: CFBE41o-F508delCFTR-HRP cells; for Maximum % activity (with co-corrector): with co-corrector (2 μM); for Maximum % activity (with co-corrector) / Maximum % activity (without co-corrector): normalized to on-plate positive control, highest concentration 20 μM. The method, boiled down: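 Surface F508delCFTR-HRP was read by luminol luminescence after 18–24 h compound exposure at 33 °C, without or with 2 μM co-corrector. Doses were eight 3-fold steps from 20 μM, in doxycycline-induced (0.5 μg/mL, 72 h) CFBE41o- cells. % activity was scaled to the on-plate 2 μM positive control minus DMSO; EC50 came from a variable-slope sigmoid fit.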

[1] abbreviates: test compound without co-corrector, 18-24 hours at 33° C., read-out: EC50 (without co-corrector).
The mark [2] stands for this setting: with co-corrector (2 μM of 3-[(2R,4R)-4-({[1-(2,2-difluoro-1,3-benzodioxol-5-yl)cyclopropyl]carbonyl}amino)-7-methoxy-3,4-dihydro-2H-chromen-2-yl]benzoic acid), read-out: EC50 (with co-corrector).

SMILES strings stand for the structures. Read-outs that look alike come from different tables or passages of the source.

T1 sequence (P13569 with tags, fused parts or gaps DEL508-508): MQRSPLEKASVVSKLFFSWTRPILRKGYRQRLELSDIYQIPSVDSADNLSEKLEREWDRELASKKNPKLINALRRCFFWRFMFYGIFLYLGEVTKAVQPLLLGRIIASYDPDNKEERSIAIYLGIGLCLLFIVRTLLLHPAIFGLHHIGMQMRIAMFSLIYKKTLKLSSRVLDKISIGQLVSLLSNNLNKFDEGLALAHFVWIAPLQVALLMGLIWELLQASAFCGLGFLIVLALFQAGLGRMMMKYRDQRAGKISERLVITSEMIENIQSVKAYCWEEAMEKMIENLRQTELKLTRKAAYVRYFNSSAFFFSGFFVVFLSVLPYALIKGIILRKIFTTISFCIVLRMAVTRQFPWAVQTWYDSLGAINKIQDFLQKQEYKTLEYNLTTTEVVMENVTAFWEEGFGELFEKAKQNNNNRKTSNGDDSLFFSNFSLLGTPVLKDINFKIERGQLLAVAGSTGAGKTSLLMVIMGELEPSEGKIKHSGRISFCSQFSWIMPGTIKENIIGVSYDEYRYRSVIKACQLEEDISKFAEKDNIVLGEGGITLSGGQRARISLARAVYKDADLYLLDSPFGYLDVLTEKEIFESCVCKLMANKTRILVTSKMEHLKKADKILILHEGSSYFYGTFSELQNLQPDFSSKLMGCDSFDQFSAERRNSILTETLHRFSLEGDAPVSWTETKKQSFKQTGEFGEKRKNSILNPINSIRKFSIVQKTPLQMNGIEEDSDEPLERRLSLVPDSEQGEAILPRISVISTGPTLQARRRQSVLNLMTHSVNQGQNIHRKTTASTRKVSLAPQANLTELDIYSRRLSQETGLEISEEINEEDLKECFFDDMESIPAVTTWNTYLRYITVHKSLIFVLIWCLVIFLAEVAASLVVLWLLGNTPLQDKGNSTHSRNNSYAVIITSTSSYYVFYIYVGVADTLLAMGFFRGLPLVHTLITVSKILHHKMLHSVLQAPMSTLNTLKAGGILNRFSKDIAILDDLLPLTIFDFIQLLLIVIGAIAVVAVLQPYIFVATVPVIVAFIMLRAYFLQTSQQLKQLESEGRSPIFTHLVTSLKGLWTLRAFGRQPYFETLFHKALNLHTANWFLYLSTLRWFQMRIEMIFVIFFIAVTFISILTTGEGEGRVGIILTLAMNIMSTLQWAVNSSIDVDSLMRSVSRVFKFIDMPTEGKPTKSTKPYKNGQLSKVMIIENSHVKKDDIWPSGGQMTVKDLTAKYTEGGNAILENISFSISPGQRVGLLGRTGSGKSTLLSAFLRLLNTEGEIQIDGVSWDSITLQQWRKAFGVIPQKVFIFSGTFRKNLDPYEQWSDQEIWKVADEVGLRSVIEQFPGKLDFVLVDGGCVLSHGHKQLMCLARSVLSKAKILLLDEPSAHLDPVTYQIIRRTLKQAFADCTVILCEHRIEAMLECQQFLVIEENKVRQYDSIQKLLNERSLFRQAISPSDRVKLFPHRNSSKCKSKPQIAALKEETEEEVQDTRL

The term EC50 denotes the concentration at which the effect is half-maximal. `COc1ccc(C(F)(F)F)cc1[C@@](O)(CO)CO[C@H]1[C@H](C(C)(C)C)[C@@H](C(=O)O)N(C(=O)[C@@H]2CCCCO2)[C@H]1c1ccccc1C` [Example 263, (2S,3R,4S,5S)-3-tert-butyl-4-{(2R)-2,3-dihydroxy-2-[2-methoxy-5-(trifluoromethyl)phenyl]propoxy}-5-(2-methylphenyl)-1-[(2S)-oxane-2-carbonyl]pyrrolidine-2-carboxylic acid]: the “Maximum % activity (with co-corrector)” value is “++ (≥150 and <350)”; the “Maximum % activity (without co-corrector)” value was “+ (<100)”. In addition, the EC50 under setting [1] is over 10000 nM. Besides, the EC50 under setting [2] was 1000 to 10000 nM.

Take `COc1ccc(C(F)(F)F)cc1C(=O)CO[C@H]1[C@H](C(C)(C)C)[C@@H](C(=O)O)N(C(=O)[C@@H]2CCCCO2)[C@H]1c1ccccc1C` [Example 264, (2S,3R,4S,5S)-3-tert-butyl-4-{2-[2-methoxy-5-(trifluoromethyl)phenyl]-2-oxoethoxy}-5-(2-methylphenyl)-1-[(2S)-oxane-2-carbonyl]pyrrolidine-2-carboxylic acid]: the “Maximum % activity (with co-corrector)” value is given as “+++ (≥350)” and the “Maximum % activity (without co-corrector)” value was “+ (<100)”. Further, under setting [1], the EC50 lay in the range of 1000 to 10000 nM. Also, the EC50 under setting [2] fell in the range of 1000 to 10000 nM.

As to `COc1ncc(C2CCC2)cc1CO[C@H]1[C@H](C(C)(C)C)[C@@H](C(=O)O)N(C(=O)OC(C)C(F)(F)F)[C@H]1c1cccnc1OC(C)C` (stereo partly drawn) [Example 265, (2S,3R,4S,5S)-3-tert-butyl-4-[(5-cyclobutyl-2-methoxypyridin-3-yl)methoxy]-5-{2-[(propan-2-yl)oxy]pyridin-3-yl}-1-{[(1,1,1-trifluoropropan-2-yl)oxy]carbonyl}pyrrolidine-2-carboxylic acid], the “Maximum % activity (with co-corrector)” value is given as “+++ (≥350)”; the “Maximum % activity (without co-corrector)” value was “++ (≥100 and <200)”. Further, the EC50 under setting [1] is under 1000 nM. In addition, the half-maximal effective concentration (EC50) under setting [2] is under 1000 nM.

Turning to `COc1ncc(C2CCC2)cc1CO[C@H]1[C@H](C(C)(C)C)[C@@H](C(=O)O)N(C(=O)O[C@H](C)C(F)(F)F)[C@H]1c1cccnc1OC(C)C` [Example 266, (2S,3R,4S,5S)-3-tert-butyl-4-[(5-cyclobutyl-2-methoxypyridin-3-yl)methoxy]-5-{2-[(propan-2-yl)oxy]pyridin-3-yl}-1-({[(2R)-1,1,1-trifluoropropan-2-yl]oxy}carbonyl)pyrrolidine-2-carboxylic acid], the “Maximum % activity (with co-corrector)” value is “+++ (≥350)”; the “Maximum % activity (without co-corrector)” value is “++ (≥100 and <200)”. The EC50 under setting [1] was in the range of 1000 to 10000 nM. Besides, under setting [2], the EC50 is under 1000 nM.

With `COc1ncc(C2CCC2)cc1CO[C@H]1[C@H](C(C)(C)C)[C@@H](C(=O)O)N(C(=O)O[C@@H](C)C(F)(F)F)[C@H]1c1cccnc1OC(C)C` [Example 267, (2S,3R,4S,5S)-3-tert-butyl-4-[(5-cyclobutyl-2-methoxypyridin-3-yl)methoxy]-5-{2-[(propan-2-yl)oxy]pyridin-3-yl}-1-({[(2S)-1,1,1-trifluoropropan-2-yl]oxy}carbonyl)pyrrolidine-2-carboxylic acid], the “Maximum % activity (with co-corrector)” value is reported as “+++ (≥350)”; the “Maximum % activity (without co-corrector)” value is “++ (≥100 and <200)”. The concentration for a half-maximal effect (EC50) under setting [1] was 1000 to 10000 nM. For the same compound, under setting [2], the EC50 is under 1000 nM.

Turning to `COc1ccc(C(F)(F)F)cc1C(O)CO[C@H]1[C@H](C(C)(C)C)[C@@H](C(=O)O)N(C(=O)[C@@H]2CCCCO2)[C@H]1c1ccccc1C` (stereo partly drawn) [Example 268, (2S,3R,4S,5S)-3-tert-butyl-4-{2-hydroxy-2-[2-methoxy-5-(trifluoromethyl)phenyl]ethoxy}-5-(2-methylphenyl)-1-[(2S)-oxane-2-carbonyl]pyrrolidine-2-carboxylic acid], the “Maximum % activity (with co-corrector)” value is listed as “+++ (≥350)” and the “Maximum % activity (without co-corrector)” value was “+ (<100)”. Further, the EC50 under setting [1] lay within 1000 to 10000 nM. For the same compound, the EC50 under setting [2] was in the range of 1000 to 10000 nM.

In the case of `COc1ccc(C(F)(F)F)cc1C(CO[C@H]1[C@H](C(C)(C)C)[C@@H](C(=O)O)N(C(=O)[C@@H]2CCCCO2)[C@H]1c1ccccc1C)OC` (stereo partly drawn) [Example 269, (2S,3R,4S,5S)-3-tert-butyl-4-{2-methoxy-2-[2-methoxy-5-(trifluoromethyl)phenyl]ethoxy}-5-(2-methylphenyl)-1-[(2S)-oxane-2-carbonyl]pyrrolidine-2-carboxylic acid], the “Maximum % activity (with co-corrector)” value is listed as “+++ (≥350)” and the “Maximum % activity (without co-corrector)” value is recorded as “+++ (≥200)”. Under setting [1], the EC50 fell in the range of 1000 to 10000 nM. Moreover, the EC50 under setting [2] is under 1000 nM.

On to `COc1ccc(C(C)(C)C)cc1CO[C@H]1[C@H](C(C)(C)OC)[C@@H](C(=O)O)N(C(=O)[C@@H]2CCCCO2)[C@H]1c1ccccc1C(C)C` [Example 270, (2S,3R,4S,5S)-4-[(5-tert-butyl-2-methoxyphenyl)methoxy]-3-(2-methoxypropan-2-yl)-1-[(2S)-oxane-2-carbonyl]-5-[2-(propan-2-yl)phenyl]pyrrolidine-2-carboxylic acid], for which the “Maximum % activity (with co-corrector)” value is reported as “+++ (≥350)” and the “Maximum % activity (without co-corrector)” value is on record as “+++ (≥200)”. In addition, the EC50 under setting [1] was under 1000 nM. Also, the EC50 under setting [2] is under 1000 nM.

On to `COc1ncc(C(F)(F)F)cc1CO[C@H]1[C@H](C(C)(C)C)[C@@H](C(=O)O)N(C(=O)O[C@@H](C)C(F)(F)F)[C@H]1c1cccnc1OC(C)C` [Example 271, (2S,3R,4S,5S)-3-tert-butyl-4-{[2-methoxy-5-(trifluoromethyl)pyridin-3-yl]methoxy}-5-{2-[(propan-2-yl)oxy]pyridin-3-yl}-1-({[(2S)-1,1,1-trifluoropropan-2-yl]oxy}carbonyl)pyrrolidine-2-carboxylic acid], for which the “Maximum % activity (with co-corrector)” value is reported as “+++ (≥350)”; the “Maximum % activity (without co-corrector)” value is “++ (≥100 and <200)”. Also, under setting [1], the EC50 is under 1000 nM. Moreover, the EC50 under setting [2] is under 1000 nM.

Consider `COc1ccc(C(F)(F)F)cc1[C@@H](C)CO[C@H]1[C@H](C(C)(C)C)[C@@H](C(=O)O)N(C(=O)[C@@H]2CCCCO2)[C@H]1c1ccccc1C` [Example 272, (2S,3R,4S,5S)-3-tert-butyl-4-{(2R)-2-[2-methoxy-5-(trifluoromethyl)phenyl]propoxy}-5-(2-methylphenyl)-1-[(2S)-oxane-2-carbonyl]pyrrolidine-2-carboxylic acid], for which the “Maximum % activity (with co-corrector)” value was “+++ (≥350)” and the “Maximum % activity (without co-corrector)” value was “+++ (≥200)”. For the same compound, the 50% effective concentration (EC50) under setting [1] was under 1000 nM. Under setting [2], the EC50 was under 1000 nM.

Regarding `COc1ccc(C(F)(F)F)cc1[C@H](C)CO[C@H]1[C@H](C(C)(C)C)[C@@H](C(=O)O)N(C(=O)[C@@H]2CCCCO2)[C@H]1c1ccccc1C` [Example 273, (2S,3R,4S,5S)-3-tert-butyl-4-{(2S)-2-[2-methoxy-5-(trifluoromethyl)phenyl]propoxy}-5-(2-methylphenyl)-1-[(2S)-oxane-2-carbonyl]pyrrolidine-2-carboxylic acid], the “Maximum % activity (with co-corrector)” value is “+++ (≥350)” and the “Maximum % activity (without co-corrector)” value is reported as “+++ (≥200)”. Moreover, the EC50 under setting [1] was under 1000 nM. For the same compound, the EC50 under setting [2] is under 1000 nM.

As for `COc1ccc(C(C)(C)C)cc1CO[C@H]1[C@H](C(C)(C)C)[C@@H](C(=O)O)N(C(=O)O[C@@H](C)C(F)(F)F)[C@H]1c1cccnc1OC(C)C` [Example 274, (2S,3R,4S,5S)-3-tert-butyl-4-[(5-tert-butyl-2-methoxyphenyl)methoxy]-5-{2-[(propan-2-yl)oxy]pyridin-3-yl}-1-({[(2S)-1,1,1-trifluoropropan-2-yl]oxy}carbonyl)pyrrolidine-2-carboxylic acid], the “Maximum % activity (with co-corrector)” value is “+++ (≥350)” and the “Maximum % activity (without co-corrector)” value is given as “+++ (≥200)”. Besides, the EC50 under setting [1] was under 1000 nM. The EC50 under setting [2] is under 1000 nM.

Regarding `COc1ncc(C2CCC2)cc1CO[C@H]1[C@H](C(C)(C)C)[C@@H](C(=O)O)N(C(=O)C2(C(F)(F)F)CC2)[C@H]1c1cccnc1OC(C)C` [Example 275, (2S,3R,4S,5S)-3-tert-butyl-4-[(5-cyclobutyl-2-methoxypyridin-3-yl)methoxy]-5-{2-[(propan-2-yl)oxy]pyridin-3-yl}-1-[1-(trifluoromethyl)cyclopropane-1-carbonyl]pyrrolidine-2-carboxylic acid], the “Maximum % activity (with co-corrector)” value was “++ (≥150 and <350)”; the “Maximum % activity (without co-corrector)” value was “+ (<100)”. Also, the EC50 under setting [1] was over 10000 nM. Besides, under setting [2], the concentration giving a half-maximal response (EC50) was 1000 to 10000 nM.

`COc1ncc(C2CCC2)cc1CO[C@H]1[C@H](C(C)(C)C)[C@@H](C(=O)O)N(C(=O)C2(C(F)(F)F)CCCC2)[C@H]1c1cccnc1OC(C)C` [Example 276, (2S,3R,4S,5S)-3-tert-butyl-4-[(5-cyclobutyl-2-methoxypyridin-3-yl)methoxy]-5-{2-[(propan-2-yl)oxy]pyridin-3-yl}-1-[1-(trifluoromethyl)cyclopentane-1-carbonyl]pyrrolidine-2-carboxylic acid]: the “Maximum % activity (with co-corrector)” value is “++ (≥150 and <350)”; the “Maximum % activity (without co-corrector)” value was “+ (<100)”. Moreover, under setting [1], the EC50 is over 10000 nM. Under setting [2], the EC50 is under 1000 nM.
